Results taken from patent publication US20180327375A1, “AROMATIC SURFACTANTS” (REGENTS OF THE UNIVERSITY OF MINNESOTA, priority 2015, published 2018).
Values joined by “and” are separate entries in the source; they are usually repeats but may differ in a detail not shown here. Equal entries are not always repeated. Structures can show the parent of a compound that is named as a salt. Where two headings read alike, the source gives them in different places.

How the values were obtained:
Assay type in all cases: physicochemical
[1] = Krafft point by conductivity vs temperature; conditions: 1.0 wt % surfactant in water (2.0 wt % for OFS-12-1/O)
Method: Krafft point or Krafft temperature is the minimum temperature at which surfactants form micelles. Below Krafft point, the surfactants precipitate out of solution and remain in the crystalline phase. FIG. 30 depicts the apparatus utilized for the measurement of Krafft points. A 1.0 wt % solution of surfactant in deionized water was prepared for all surfactants except in the case of OFS-12-1/O where a 2.0 wt % solution was used instead, since its CMC is roughly about 1.1 wt %. 50 mL of the prepared solution was poured into a beaker surrounded by a freezing mixture of ice and salt (sodium chloride) mounted on a laboratory hot plate with magnetic stirring. The Krafft point (TK) of the surfactants was measured by estimating the degree of counterion dissociation using a conductivity meter (COND 6+, Oakton/Eutech Instruments) immersed in the surfactant solution capable of measuring both, conductivity and temperature. The magnetic stirring speed was set to 650 rpm and the solution was first allowed to cool to 0° C. Upon attainment of this temperature, the solution was slowly heated and the conductivity was measured in every 0.5° C. increments until it reached a steady value. […] Visually, this corresponded to the surfactant solution transitioning from a turbid system due to the precipitated surfactant crystals below the Krafft point to a clear solution indicating the dissolution of surfactants and the formation of micelles in water.
For the OFS-Cocinic, n=8-18 surfactant, the conductivity vs temperature plot was erratic, which is attributed to the presence of 6 different surfactants in the mixture. The solution changed from turbid to clear at approximately 18.5° C. which was, therefore, reported as the Krafft point. Methyl Ester Sulfonate (MES), Sodium Lauryl Ether Sulfate (SLES), OFS-7 and all OFS-n-1/O surfactant solutions remained clear even at 0° C.; the Krafft point was thus reported as <0° C.

[2] = Hardness tolerance / hard water stability (surface tension and turbidity vs CaCl2 concentration); conditions: for Turbid conc.: onset of turbidity
Excerpt: Precipitation of the anionic surfactant from hard water is an undesired process in detergency. The tendency of the anionic surfactants to precipitate is quantified by analyzing hardness tolerance. Hardness tolerance is the minimum concentration of counterion, such as, Ca^2+ and Mg^2+, precipitating with surfactant, resulting in deactivation of the surfactant performance (C. H. Rodriguez, L. H. Lowery, J. F. Scamehorn, J. H. Harwell, Kinetics of precipitation of surfactants. I. Anionic surfactants with calcium and with cationic surfactants. Journal of Surfactants and Detergents 4, 1-14 (2001); C. H. Rodriguez, C. Chintanasathien, J. F. Scamehorn, C. Saiwan, S. Chavadej, Precipitation in solutions containing mixtures of synthetic anionic surfactant and soap. I. Effect of sodium octanoate on hardness tolerance of sodium dodecyl sulfate. Journal of Surfactants and Detergents 1, 321-328 (1998); and J. F. Scamehorn, “Precipitation of mixtures of anionic surfactants” in mixed Surfactant systems ACS Symposium Series (American Chemical Society: Washington D.C., 1992), pp. 392-401). Calcium chloride was used as a divalent counterion, and surface tension of the surfactant solution was measured with increasing concentration of CaCl2 from 1 mM to 450 mM. The value of calcium concentration above which the surface tension of the surfactant solution increased was recorded as the tolerance value of the surfactant towards calcium as indicated by the dashed red line in FIGS. 46A to 49B.
All experiments were carried out at a concentration equal to twice CMC of each surfactant, and the point of transition from a clear solution to a turbid one was also monitored. FIGS. 50A to 50E illustrate this effect for a linear alkylbenzene sulfonate (LAS) solution. Below the turbid point, the surfactant solution was clear as shown by FIGS. 50B and 50C which changed to a cloudy solution at calcium concentrations equal to and greater than the turbid point (FIG. 50D and FIG. 50E). The point of micelle stability was marked by an increase in the surface tension of the surfactant solution with an increase in calcium concentration. FIG. 50C corresponds to the micelle stability concentration and FIG. 50D corresponds to the turbid concentration. Micelle stability is defined as the calcium concentration at the increasing point of surface tension, and turbid concentration marks the onset of turbidity in the surfactant solution The solution transitions from clear to turbid as shown in FIGS. 50B to 50E

[3] = Particle size distribution of micelles via dynamic light scattering (DLS)
Method: Dynamic Light Scattering (DLS) has been used in the past for studying surfactant aggregates (N. Vlachy, M. Drechsler, J.-M. Verbavatz, D. Touraud, W. Kunz, Role of surfactant headgroup on the counterion specificity in the micelle-to-vesicle transition through salt addition. J. Colloid Interface Sci. 319, 542-548 (2008)). Micelle size distribution studies of the OFS-12 surfactant was performed using the Microtrac NANO-flex analyzer which employs a 180° scattering angle DLS technique. Two different surfactant concentration samples were prepared (5.0 and 10×CMC, 0.35 and 0.7 wt %) by dissolving the required amount of surfactant in deionized water and filtering the solution after surfactant dissolution using a 0.2μ micropore filter to remove any dust particles. Prior to each sample run, a blank solution (DI water) was used to set the baseline to zero. FIGS. 26A and 26B show the average particle size distribution plots for the surfactant solutions. The average values were computed based on five individual trials each lasting 120 sec.

Compound | Krafft Point [1] | Micelle Stability [2] | Micelle stability conc. [2] | Turbid conc. ([2]; surfactant at twice CMC) | Average micelle size (number distribution) ([3]; surfactant concentration 5.0×CMC in deionized water) [nm] | Average micelle size (number distribution) ([3]; surfactant concentration 10.0×CMC in deionized water) [nm] | Krafft Point ([1]; sulfate) | Micelle stability conc. ([2]; surfactant at twice CMC) | Micelle Stability ([2]; surfactant at twice CMC, calcium concentration where surface tension starts to increase) [ppm Ca^2+]
CCCCCCCCCCCCc1ccc(S(=O)(=O)[O-])o1.[Na+] [OFS-12, Sodium 5-Dodecylfuran-2-Sulfonate] | 30 °C and 30.0 ± 1.0 °C | > 50,000 ppm Ca^2+ | >50,000 ppm of CaCl2 | 10,000 ppm of CaCl2 | 7.41 | 6.29 | – | – | –
CCCCCCCCCCCCOS(=O)(=O)O [SLS, sodium dodecyl sulfate, reference compound] | – | – | – | 33 ppm of CaCl2 | – | – | 15 °C and 15.0 ± 1.2 °C | 33 ppm of CaCl2 | 33
sodium lauryl ether sulfate [SLES, reference compound] | <0 °C | > 50,000 ppm Ca^2+ | >50,000 ppm of CaCl2 | >50,000 ppm of CaCl2 | – | – | – | – | –

Further lines, with some results ahead:

Krafft Point [1] | Compound | Micelle Stability [2] | Micelle stability conc. [2] | Turbid conc. ([2]; surfactant at twice CMC) | Average micelle size (number distribution) ([3]; surfactant concentration 5.0×CMC in deionized water) [nm] | Average micelle size (number distribution) ([3]; surfactant concentration 10.0×CMC in deionized water) [nm] | Krafft Point ([1]; sulfate) | Micelle stability conc. ([2]; surfactant at twice CMC) | Micelle Stability ([2]; surfactant at twice CMC, calcium concentration where surface tension starts to increase) [ppm Ca^2+]
< 0 °C | CCCCCCCc1ccc(S(=O)(=O)[O-])o1.[Na+] [OFS-7, Sodium 5-Heptylfuran-2-Sulfonate] | 120 ppm Ca^2+ | 110 ppm of CaCl2 | 230 ppm of CaCl2 | – | – | – | – | –
41.5 °C and 41.5 ± 0.9 °C | CCCCCCCCCCCCCCc1ccc(S(=O)(=O)[O-])o1.[Na+] [OFS-14, Sodium 5-Tetradecylfuran-2-Sulfonate] | > 50,000 ppm Ca^2+ | >50,000 ppm of CaCl2 | 2,000 ppm of CaCl2 | – | – | – | – | –
